From the Kinase Knowledgebase extract (Sharma et al. 2016) come the findings set out here.

The target of the assay is EGFR (human) (UniProt P00533). As to conditions: a431.
EGFR (human), sequence (P00533 whole entry, looked up): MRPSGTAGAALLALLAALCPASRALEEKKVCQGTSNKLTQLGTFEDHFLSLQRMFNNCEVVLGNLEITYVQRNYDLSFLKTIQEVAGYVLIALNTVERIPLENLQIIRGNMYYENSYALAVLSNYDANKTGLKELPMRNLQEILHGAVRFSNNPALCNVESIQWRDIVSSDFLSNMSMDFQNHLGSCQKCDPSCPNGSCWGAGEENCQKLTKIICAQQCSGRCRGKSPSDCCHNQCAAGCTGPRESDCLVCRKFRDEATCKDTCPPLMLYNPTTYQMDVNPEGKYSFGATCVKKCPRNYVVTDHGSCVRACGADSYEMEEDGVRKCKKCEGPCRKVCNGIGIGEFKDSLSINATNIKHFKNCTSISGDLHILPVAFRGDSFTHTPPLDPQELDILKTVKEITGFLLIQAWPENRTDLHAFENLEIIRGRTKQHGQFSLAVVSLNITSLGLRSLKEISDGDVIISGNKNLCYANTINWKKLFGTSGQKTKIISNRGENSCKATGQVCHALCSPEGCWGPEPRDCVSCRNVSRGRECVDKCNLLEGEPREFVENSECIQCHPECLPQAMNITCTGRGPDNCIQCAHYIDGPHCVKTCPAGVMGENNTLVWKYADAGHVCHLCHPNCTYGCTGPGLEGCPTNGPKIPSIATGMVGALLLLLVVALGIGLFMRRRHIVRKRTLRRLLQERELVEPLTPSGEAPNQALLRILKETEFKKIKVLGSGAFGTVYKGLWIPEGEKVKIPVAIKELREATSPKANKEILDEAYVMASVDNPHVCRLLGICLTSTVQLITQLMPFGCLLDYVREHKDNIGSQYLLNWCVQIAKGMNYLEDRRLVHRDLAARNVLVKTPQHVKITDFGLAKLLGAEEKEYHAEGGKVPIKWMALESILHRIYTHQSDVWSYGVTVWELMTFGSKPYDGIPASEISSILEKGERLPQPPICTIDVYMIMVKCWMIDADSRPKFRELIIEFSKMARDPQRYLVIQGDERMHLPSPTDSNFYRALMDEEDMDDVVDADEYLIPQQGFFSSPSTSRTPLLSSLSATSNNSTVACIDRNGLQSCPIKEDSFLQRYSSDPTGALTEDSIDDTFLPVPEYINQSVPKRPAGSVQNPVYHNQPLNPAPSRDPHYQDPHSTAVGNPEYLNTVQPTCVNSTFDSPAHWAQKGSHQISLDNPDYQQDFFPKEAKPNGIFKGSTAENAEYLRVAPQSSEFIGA

For `Cc1c(C=C2C(=O)Nc3cccc(CCO)c32)[nH]c2c1C(=O)N(CCN1CCOCC1)CC2`, the IC50 (in general, the concentration at which inhibition is half-maximal) was 16500 nM. The figure for `CCN(CC)CCN1CCc2[nH]c(C=C3C(=O)Nc4ccc(-c5ccc(OC)cc5)cc43)c(C)c2C1=O` is 3890 nM; for `CCN(CC)CCN1CCc2[nH]c(C=C3C(=O)Nc4cccc(-c5ccc(Cl)cc5F)c43)c(C)c2C1=O` it is 3230 nM.

For the molecule `Cc1c(C=C2C(=O)Nc3ccc(NS(C)(=O)=O)cc32)[nH]c2c1C(=O)N(CCN1CCOCC1)CC2`, the IC50 was 2850 nM. `COCC(=O)Nc1cc2c(cc1F)C(=Cc1[nH]c3c(c1-c1ccc(F)cc1)C(=O)NCC3)C(=O)N2`: the IC50 amounted to 2030 nM. Molecule `Cc1c(C=C2C(=O)Nc3cccc(C4CCNCC4)c32)[nH]c2c1C(=O)N(CCN1CCOCC1)CC2` had an IC50 of 1900 nM.

Consider `O=C(CO)Nc1cc2c(cc1F)C(=Cc1[nH]c3c(c1-c1ccc(F)cc1)C(=O)NCC3)C(=O)N2`, for which the half-inhibitory concentration (IC50) stood at 3060 nM. The same measure for `CCN(CC)CCN1CCc2[nH]c(C=C3C(=O)Nc4cccc(CCO)c43)c(C)c2C1=O`: 3850 nM; for `Cc1c(C=C2C(=O)Nc3cccc(-c4cccc(Cl)c4F)c32)[nH]c2c1C(=O)N(CCN1CCCC1)CC2`: 13800 nM; for `CCN(CC)CCN1CCc2[nH]c(C=C3C(=O)Nc4ccc(Cl)cc43)c(C)c2C1=O`: 1040 nM. Take `Cc1c(C=C2C(=O)Nc3ncc(Br)cc32)[nH]c2c1C(=O)N(CCN1CCCCC1)CC2`: the IC50 was found to be 1660 nM. Turning to `CCN(CC)CCN1CCc2[nH]c(C=C3C(=O)Nc4ccc(NC=O)cc43)c(C)c2C1=O`, the IC50 worked out at 840 nM. The same measure for `CCN(CC)CCN1CCc2[nH]c(C=C3C(=O)Nc4ccc(Br)cc43)c(C)c2C1=O`: 1260 nM; for `CCN(CC)CCN1CCc2[nH]c(C=C3C(=O)Nc4cccc(-c5cccc(F)c5F)c43)c(C)c2C1=O`: 380 nM; for `Cc1c(C=C2C(=O)Nc3ccc(Cl)cc32)[nH]c2c1C(=O)N(CCN1CCOCC1)CC2`: 10200 nM.

As to `Cc1c(C=C2C(=O)Nc3cccc(-c4c(F)cccc4F)c32)[nH]c2c1C(=O)N(CCN1CCCCC1)CC2`, the IC50 was determined as 530 nM. The same measure for `Cc1c(C=C2C(=O)Nc3c(Br)cc(F)cc32)[nH]c2c1C(=O)N(CCN1CCCCC1)CC2`: 270 nM.

`CCN(CC)CCN1CCc2[nH]c(C=C3C(=O)Nc4cc(NC(C)=O)c(F)cc43)c(C)c2C1=O`: the IC50 came to 9290 nM. The figure for `Cc1c(C=C2C(=O)Nc3ccc(F)cc32)[nH]c2c1C(=O)N(CCN1CCOCC1)CC2` is 1350 nM; for `CCN(CC)CCN1CCc2[nH]c(C=C3C(=O)Nc4cccc(-c5cccc(Cl)c5F)c43)c(C)c2C1=O` it is 7320 nM. `CCN(CC)CCN1CCc2[nH]c(C=C3C(=O)Nc4c(NC=O)cc(F)cc43)c(C)c2C1=O` had an IC50 of 1380 nM. The same measure for `CCN(CC)CCN1CCc2[nH]c(C=C3C(=O)Nc4ccc(F)cc43)c(C)c2C1=O`: 1090 nM; for `Cc1c(C=C2C(=O)Nc3cccc(-c4cccc(Cl)c4F)c32)[nH]c2c1C(=O)N(CCN1CCOCC1)CC2`: 6110 nM. In the case of `CCN(CC)CCN1CCc2[nH]c(C=C3C(=O)Nc4ncnc(Nc5ccc(F)c(Cl)c5)c43)c(C)c2C1=O`, the half-maximal inhibitory concentration (IC50) came to 67 nM. Consider `CCN(CC)CCN1CCc2[nH]c(C=C3C(=O)Nc4c(NC(C)=O)cc(F)cc43)c(C)c2C1=O`, for which the IC50 came to 1380 nM.

Turning to `Cc1c(C=C2C(=O)Nc3cc(NCc4ccc(F)cc4)c(F)cc32)[nH]c2c1C(=O)N(CCN1CCCCC1)CC2`, the IC50 turned out to be 340 nM. On to `Cc1c(C=C2C(=O)Nc3cc(N)c(F)cc32)[nH]c2c1C(=O)N(CCN1CCCC1)CC2`, for which the IC50 came out at 10700 nM. For `CCN(CC)CCN1CCc2[nH]c(C=C3C(=O)Nc4cc(N)c(F)cc43)c(C)c2C1=O`, the half-maximal inhibitory concentration (IC50) came to 10500 nM.

Molecule `CCN(CC)CCN1CCc2[nH]c(C=C3C(=O)Nc4cc(NC=O)c(F)cc43)c(C)c2C1=O` had an IC50 of 370 nM. The same measure for `Cc1c(C=C2C(=O)Nc3cccc(CCO)c32)[nH]c2c1C(=O)N(CCN1CCCC1)CC2`: 1680 nM. The figure for `Cc1c(C=C2C(=O)Nc3cccc(C4CCNCC4)c32)[nH]c2c1C(=O)N(CCN1CCCC1)CC2` is 590 nM; for `Cc1c(C=C2C(=O)Nc3cc(NC(=O)CO)c(F)cc32)[nH]c2c1C(=O)N(CCN1CCCCC1)CC2` it is 1250 nM; for `Cc1c(C=C2C(=O)Nc3cccc(Br)c32)[nH]c2c1C(=O)N(CCN1CCCC1)CC2` it is 200 nM. `Cc1c(C=C2C(=O)Nc3ncnc(Nc4ccc(F)c(Cl)c4)c32)[nH]c2c1C(=O)N(CCN1CCOCC1)CC2` yielded an IC50 of 330 nM. The figure for `Cc1c(C=C2C(=O)Nc3ccc(F)cc32)[nH]c2c1C(=O)N(CCN1CCCC1)CC2` is 1310 nM; for `CCN(CC)CCN1CCc2[nH]c(C=C3C(=O)Nc4cccc(Br)c43)c(C)c2C1=O` it is 330 nM; for `Cc1c(C=C2C(=O)Nc3cccc(-c4cccc(F)c4)c32)[nH]c2c1C(=O)N(CCN1CCCCC1)CC2` it is 180 nM. Consider `Cc1c(C=C2C(=O)Nc3ccc(NC=O)cc32)[nH]c2c1C(=O)N(CCN1CCCCC1)CC2`, for which the IC50 was found to be 120 nM.

Molecule `CCN(CC)CCN1CCc2[nH]c(C=C3C(=O)Nc4c(N)cc(F)cc43)c(C)c2C1=O` registered an IC50 of 12600 nM. The same measure for `CCN(CC)CCN1CCc2[nH]c(C=C3C(=O)Nc4ccc(OC)cc43)c(C)c2C1=O`: 4350 nM; for `CCN(CC)CCN1CCc2[nH]c(C=C3C(=O)Nc4cccc(C5CCNCC5)c43)c(C)c2C1=O`: 350 nM.

For `Cc1c(C=C2C(=O)Nc3cccc(-c4cccc(F)c4F)c32)[nH]c2c1C(=O)N(CCN1CCCC1)CC2`, the IC50 was found to be 2190 nM. On to `Cc1c(C=C2C(=O)Nc3ncc(Br)cc32)[nH]c2c1C(=O)N(CCN1CCOCC1)CC2`, for which the IC50 was determined as 15900 nM.
